In patent publication US20140259191A1, “FISH ANESTHETIC AND METHOD” (AQUA-MOR TECHNOLOGIES LTD., priority 2011, published 2014):

Assays:
carp fish = experiment: Anesthesia of carp by linalool added to tank water; format: in vivo, Cyprinus carpio; conditions: for time after addition of linalool until fish became relaxed / time until fish completely anesthetized: pH 7
Description: To a 100 liter tank containing 462 10-month old carp fish (Cyprinus carpio) of average weight 70 g and average body length 10 cm, having water at 25° C. at pH 7 was added a formulation containing 1% linalool. The formulation was added to the water to a linalool concentration of 75 ppm in the water. The fish became relaxed 3 minutes after addition of linalool and after 5 minutes were completely anesthetized. After 15 minutes the fish were removed to a recovery tank with fresh water. After 20 minutes in the recovery tank the fish resumed normal behavior.
To a 20 liter tank containing eight 2.5-year old carp fish of average weight 1 kg and average body length 50 cm in water at 20° C. and pH 7 was added a formulation containing 1% linalool. The formulation was added to the water to a linalool concentration of 100 ppm in the water. The fish became relaxed 2 minutes after addition of linalool and after 3 minutes were completely anesthetized. At 3 minutes the fish were removed to a recovery tank with fresh water. After 7 minutes in the recovery tank the fish resumed normal behavior.
To a 20 liter tank containing eight 1.8-year old carp fish of average weight 250 g and body length 21-24 cm in water at 20° C. and pH 7 was added a formulation containing 1% linalool. The formulation was added to the water to a linalool concentration of 50 ppm in the water. The fish became relaxed 3 minutes after addition of linalool and after 7 minutes were completely anesthetized. At 17 minutes the fish were removed to a recovery tank with fresh water. After 29 minutes in the recovery tank the fish resumed normal behavior.
To a 20 liter tank containing eight 2.2-year old carp fish of average weight 380 g and body length 30-32 cm in water at 20° C. and pH 7 was added a formulation containing 1% linalool. The formulation was added to the water to a linalool concentration of 100 ppm in the water. The fish became relaxed 2 minutes after addition of linalool and after 3 minutes were completely anesthetized. At 3 minutes the fish were removed to a recovery tank with fresh water. At 17 minutes in the recovery tank the fish resumed normal behavior.

carp = experiment: Carp exposed to 75 ppm linalool for varying amounts of time, recovery observed; format: in vivo, Cyprinus carpio; design: key to recovery state at 13 minutes after introduction of linalool / recovery state at 15 minutes after introduction of linalool / recovery state at 16 minutes after introduction of linalool / recovery state at 17 minutes after introduction of linalool / recovery state at 19 minutes after introduction of linalool / recovery state at 20 minutes after introduction of linalool / recovery state at 21 minutes after introduction of linalool / recovery state at 22 minutes after introduction of linalool / recovery state at 24 minutes after introduction of linalool / recovery state at 25 minutes after introduction of linalool / recovery state at 27 minutes after introduction of linalool / recovery state at 28 minutes after introduction of linalool / recovery state at 29 minutes after introduction of linalool / recovery state at 38 minutes after introduction of linalool / recovery state at 39 minutes after introduction of linalool / recovery state at 40 minutes after introduction of linalool / recovery state at 70 minutes after introduction of linalool / recovery state at 77 minutes after introduction of linalool / recovery state at 78 minutes after introduction of linalool: RT = removed to recovery tank; PR = partial recovery; TR = total recovery
Description: 16 healthy carp (Cyprinus carpio), average weight of 150 g, maintained in 6 liter tanks, were each exposed to 75 ppm of linalool (using the same formulation described in Example 1, 45 g of which were mixed into each treatment tank) for varying amounts of time. Pairs of fish were introduced to linalool simultaneously and then removed to recovery tanks at various times: 3, 8, 12, 15, 20, 30, 40 and 50 minutes after introduction, and each fish's recovery was observed over the course of two consecutive days. Complete anesthesia was achieved after 5 minutes of exposure.

common carp = experiment: Five-hour sedation of common carp, linalool versus 2-phenoxyethanol; format: in vivo; conditions: linalool 40 ppm; for Number of fish exhibiting loss of upright position: 26° C.
Description: 2-Phenoxyethanol (2-PE) is used to sedate fish in vaccinations procedures for relatively long periods of time (3 hours). 35 common carp were placed in each of two 60-liter tanks containing water at 26° C. Into one tank was added linalool (in a formulation as described in Example 28) to a concentration of 40 ppm; into the other tank was added 2-PE to a concentration of 200 ppm. Sedation of fish was determined by observation of loss of upright position, operculum movement and response to stimulus (handling). Total exposure time was five hours, at the end of which the fish were transferred 60-liter recovery tanks containing untreated water.

[1] = Example 13: 462 carp, average 70 g, 75 ppm linalool, 25° C.
[2] = Example 14: eight carp, average 1 kg, 100 ppm linalool, 20° C.
[3] = Example 15: eight carp, average 250 g, 50 ppm linalool, 20° C.
[4] = Example 16: eight carp, average 380 g, 100 ppm linalool, 20° C.
[5] = carp 150 g, fish still exposed (nos. 3-16)
[6] = carp, removed to recovery tank at 8 minutes (fish nos. 3, 4)
[7] = carp, removed to recovery tank at 12 minutes (fish nos. 5, 6)
[8] = carp, removed to recovery tank at 15 minutes (fish nos. 7, 8)
[9] = carp, removed to recovery tank at 20 minutes (fish nos. 9, 10)
[10] = carp, removed to recovery tank at 30 minutes (fish nos. 11, 12)
[11] = carp, removed to recovery tank at 40 minutes (fish nos. 13, 14)

## C=CC(C)(O)CCC=C(C)C (stereo not shown) [linalool]
Carp fish; [1]
  time after addition of linalool until fish became relaxed: 3 min
  time until fish completely anesthetized: 5 min
Carp fish; Example 13: carp 70 g, 75 ppm linalool, removed after 15 minutes
  time in recovery tank until normal behavior resumed: 20 min
Carp fish; Example 14: carp 1 kg, 100 ppm linalool, removed at 3 minutes
  time in recovery tank until normal behavior resumed: 7 min
Carp fish; [2]
  time after addition of linalool until fish became relaxed: 2 min
  time until fish completely anesthetized: 3 min
Carp fish; Example 15: carp 250 g, 50 ppm linalool, removed at 17 minutes
  time in recovery tank until normal behavior resumed: 29 min
Carp fish; [3]
  time after addition of linalool until fish became relaxed: 3 min
  time until fish completely anesthetized: 7 min
Carp fish; Example 16: carp 380 g, 100 ppm linalool, removed at 3 minutes
  time in recovery tank until normal behavior resumed: 17 min
Carp fish; [4]
  time after addition of linalool until fish became relaxed: 2 min
  time until fish completely anesthetized: 3 min
carp; Example 8: carp 150 g
  time of exposure until complete anesthesia: 5 min
carp; carp 150 g
  observed state at 5 minutes after introduction of linalool: Loss of reflex reactivity (stage 5 anesthesia)
  observed state at 10 minutes after introduction of linalool: opercular movements slow and irregular
carp; carp 150 g, all fish
  observed state at 1 minute after introduction of linalool: Total loss of equilibrium
carp; [5]
  observed state at 3 minutes after introduction of linalool: Total loss of reactivity to all but strong external stimuli
  observed state at 4 minutes after introduction of linalool: slow but regular opercular rate
carp; carp, removed to recovery tank at 3 minutes (fish nos. 1, 2)
  recovery state at 13 minutes after introduction of linalool: TR
carp; [6]
  recovery state at 15 minutes after introduction of linalool: PR
  recovery state at 16 minutes after introduction of linalool: TR and PR
  recovery state at 17 minutes after introduction of linalool: TR
carp; [7]
  recovery state at 19 minutes after introduction of linalool: PR
  recovery state at 20 minutes after introduction of linalool: PR
  recovery state at 21 minutes after introduction of linalool: TR
  recovery state at 22 minutes after introduction of linalool: TR
carp; [8]
  recovery state at 24 minutes after introduction of linalool: PR
  recovery state at 25 minutes after introduction of linalool: TR
  recovery state at 28 minutes after introduction of linalool: PR
  recovery state at 29 minutes after introduction of linalool: TR
carp; [9]
  recovery state at 27 minutes after introduction of linalool: PR
  recovery state at 28 minutes after introduction of linalool: TR
carp; [10]
  recovery state at 38 minutes after introduction of linalool: PR
  recovery state at 39 minutes after introduction of linalool: TR and PR
  recovery state at 40 minutes after introduction of linalool: TR
carp; [11]
  recovery state at 70 minutes after introduction of linalool: TR
  recovery state at 77 minutes after introduction of linalool: PR
  recovery state at 78 minutes after introduction of linalool: TR
carp; carp, removed to recovery tank at 50 minutes
  recovery of fish nos. 15 and 16: Fish nos. 15 and 16 never recovered.
Common carp; 35 common carp per tank, 2-PE 200 ppm, time 10:30 (start), aeration
  Number of fish exhibiting loss of upright position: 0
Common carp; 35 common carp per tank, 2-PE 200 ppm, time 11:00 (start 10:30), no aeration
  Number of fish exhibiting loss of upright position: 2
Common carp; 35 common carp per tank, 2-PE 200 ppm, time 11:40 (start 10:30), no aeration
  Number of fish exhibiting loss of upright position: 9
Common carp; 35 common carp per tank, 2-PE 200 ppm, time 12:35 (start 10:30), no aeration
  Number of fish exhibiting loss of upright position: 16
Common carp; 35 common carp per tank, 2-PE 200 ppm, time 13:35 (start 10:30), no aeration
  Number of fish exhibiting loss of upright position: 17
Common carp; 35 common carp per tank, 2-PE 200 ppm, time 14:30 (start 10:30), aeration
  Number of fish exhibiting loss of upright position: 20
Common carp; 35 common carp per tank, 2-PE 200 ppm, time 15:30 (start 10:30), aeration
  Number of fish exhibiting loss of upright position: 16
Common carp; 35 common carp per tank, 2-PE 200 ppm, after five hours exposure
  survival at transfer to recovery tank: All alive
Common carp; common carp, 2-PE 200 ppm
  reflex response over the 5 hours of exposure: reduced from the beginning of the trial and remained at the same level of reflex throughout the 5 hours of exposure
  sedative effect between 3 and 5 hours of exposure: maintained
Common carp; common carp, 2-PE 200 ppm, after five hours exposure
  recovery after placement in a recovery tank: recovered quickly in few minutes and did not show signs of stress
Common carp; common carp, 2-PE 200 ppm, sedation levels enabled handling
  response to external stimulation during the first 3 hours: did not respond to external stimulation
Common carp; common carp, in contrast to 2-PE
  loss of reflex reactivity: did not completely lose reflex reactivity
